As a reminder, the AC50 is the concentration giving half of the maximal activity seen.

Active and inactive are the calls of the source.

This passage reports EC50, AC50 and IC50 results from ChEMBL document CHEMBL1201862, “PubChem BioAssay data set” (2004).

Targets include Cytochrome P450 2C9 (Homo sapiens, UniProt P11712); Cytochrome P450 3A4 (Homo sapiens, UniProt P08684); Cytochrome P450 2D6 (Homo sapiens, UniProt P10635).
Series [1] addresses T1, Short transient receptor potential channel 4 (Mus musculus, UniProt Q9QUQ5).
T1 sequence (Q9QUQ5 whole entry): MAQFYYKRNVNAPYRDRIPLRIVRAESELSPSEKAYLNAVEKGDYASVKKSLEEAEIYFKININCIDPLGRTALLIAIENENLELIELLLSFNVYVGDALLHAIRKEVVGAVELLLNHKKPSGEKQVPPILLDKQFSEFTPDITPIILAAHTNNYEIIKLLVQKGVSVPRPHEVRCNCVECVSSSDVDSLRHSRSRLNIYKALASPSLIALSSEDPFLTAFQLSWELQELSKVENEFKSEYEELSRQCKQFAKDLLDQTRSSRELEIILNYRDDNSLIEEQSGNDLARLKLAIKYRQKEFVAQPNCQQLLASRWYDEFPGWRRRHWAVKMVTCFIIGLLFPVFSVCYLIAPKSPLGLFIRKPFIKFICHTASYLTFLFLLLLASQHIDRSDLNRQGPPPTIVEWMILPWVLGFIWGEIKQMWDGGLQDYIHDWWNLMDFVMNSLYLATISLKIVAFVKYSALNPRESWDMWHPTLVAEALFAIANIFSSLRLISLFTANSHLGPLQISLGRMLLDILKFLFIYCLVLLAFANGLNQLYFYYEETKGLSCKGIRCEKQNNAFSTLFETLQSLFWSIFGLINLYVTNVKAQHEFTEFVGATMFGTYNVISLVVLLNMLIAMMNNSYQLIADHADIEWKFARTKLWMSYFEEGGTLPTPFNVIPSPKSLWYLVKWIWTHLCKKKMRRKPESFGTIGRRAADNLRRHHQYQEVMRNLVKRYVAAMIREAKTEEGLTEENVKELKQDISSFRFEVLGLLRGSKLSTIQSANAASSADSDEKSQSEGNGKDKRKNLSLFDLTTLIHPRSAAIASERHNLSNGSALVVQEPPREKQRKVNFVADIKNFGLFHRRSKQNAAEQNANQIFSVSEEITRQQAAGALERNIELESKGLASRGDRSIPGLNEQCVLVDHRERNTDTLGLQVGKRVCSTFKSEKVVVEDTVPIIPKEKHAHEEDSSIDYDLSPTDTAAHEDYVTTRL
Put plainly: mouse TRPC4 channel inhibitors, dose response, cell-based, HEK293 TRPC4/mu-opioid, Fluo-4 calcium (AID 434942).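 Note: potency of inhibitors blocking the TRPC4 calcium response.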 Type of series: functional.

Series [2] is described as follows: growth suppression of PTEN-null colon cells, dose response, cell-based, HCT116 PTEN knockout (AID 1047).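 Note: HCT116 colon tumor cells with PTEN knocked out; cells exposed to compound for 60 hours before readout; potency for loss of cell viability measured by luminescence.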 Type of series: functional.
A further series relates to Escherichia coli. Put plainly: microbe, parasite or virus in culture.
The nature of series [3]: growth suppression of beta-catenin-knockout colon cells, dose response, cell-based, HCT116, human colon tumor (AID 1045).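 Note: HCT116 colon tumor cells with beta catenin knocked out; cells exposed to compound for 60 hours.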 Format: functional.
For series [4], the target named is DNA dC->dU-editing enzyme APOBEC-3G (Homo sapiens, UniProt Q9HC16). The series can be described thus: Dose Response confirmation of small molecule APOBEC3G DNA Deaminase Inhibitors via a fluorescence-based single-stranded DNA deaminase assay. [Related pubchem assays (depositor defined):AID493012, AID493028]. Type of series: functional.
Series [5] deals with Glucose-6-phosphate 1-dehydrogenase (Homo sapiens, UniProt P11413). Put plainly: human G6PD enzyme inhibitors, dose response, selectivity assay for P. falciparum G6PD inhibitor project, biochemical, fluorescence (AID 504792). Type of series: functional.
For series [6], the target named is T2, Replicative DNA helicase DnaB (Mycobacterium tuberculosis, UniProt P9WMR3).
T2 sequence (P9WMR3 whole entry): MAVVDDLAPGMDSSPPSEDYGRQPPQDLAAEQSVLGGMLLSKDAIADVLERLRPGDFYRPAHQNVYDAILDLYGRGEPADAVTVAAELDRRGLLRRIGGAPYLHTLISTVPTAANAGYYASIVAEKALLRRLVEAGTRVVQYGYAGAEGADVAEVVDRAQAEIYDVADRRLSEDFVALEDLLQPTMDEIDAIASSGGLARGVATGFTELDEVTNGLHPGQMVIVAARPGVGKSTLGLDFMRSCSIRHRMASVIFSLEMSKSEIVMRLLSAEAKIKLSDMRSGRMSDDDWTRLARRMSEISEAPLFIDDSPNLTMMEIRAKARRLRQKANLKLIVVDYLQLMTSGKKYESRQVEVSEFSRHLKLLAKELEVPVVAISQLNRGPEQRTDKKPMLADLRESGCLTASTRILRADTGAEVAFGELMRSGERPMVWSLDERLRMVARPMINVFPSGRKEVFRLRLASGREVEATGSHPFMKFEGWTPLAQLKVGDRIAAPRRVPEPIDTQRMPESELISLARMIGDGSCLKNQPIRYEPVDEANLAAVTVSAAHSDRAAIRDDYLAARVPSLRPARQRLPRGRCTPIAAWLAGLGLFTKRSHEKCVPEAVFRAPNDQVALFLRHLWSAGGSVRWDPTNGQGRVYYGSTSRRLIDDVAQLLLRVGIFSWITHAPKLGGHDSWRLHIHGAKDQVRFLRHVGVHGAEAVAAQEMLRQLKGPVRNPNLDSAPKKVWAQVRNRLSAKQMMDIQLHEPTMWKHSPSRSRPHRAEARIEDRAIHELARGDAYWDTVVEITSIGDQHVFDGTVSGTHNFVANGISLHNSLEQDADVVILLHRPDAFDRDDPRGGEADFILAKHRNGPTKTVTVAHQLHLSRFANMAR
Put plainly: DnaB intein splicing inhibitors, dose response, biochemical, cell-free fluorescence (AID 449749). Format: functional.

The target of another series is T3, Protein RecA (Mycobacterium tuberculosis, UniProt P9WHJ3).
T3 sequence (P9WHJ3 whole entry): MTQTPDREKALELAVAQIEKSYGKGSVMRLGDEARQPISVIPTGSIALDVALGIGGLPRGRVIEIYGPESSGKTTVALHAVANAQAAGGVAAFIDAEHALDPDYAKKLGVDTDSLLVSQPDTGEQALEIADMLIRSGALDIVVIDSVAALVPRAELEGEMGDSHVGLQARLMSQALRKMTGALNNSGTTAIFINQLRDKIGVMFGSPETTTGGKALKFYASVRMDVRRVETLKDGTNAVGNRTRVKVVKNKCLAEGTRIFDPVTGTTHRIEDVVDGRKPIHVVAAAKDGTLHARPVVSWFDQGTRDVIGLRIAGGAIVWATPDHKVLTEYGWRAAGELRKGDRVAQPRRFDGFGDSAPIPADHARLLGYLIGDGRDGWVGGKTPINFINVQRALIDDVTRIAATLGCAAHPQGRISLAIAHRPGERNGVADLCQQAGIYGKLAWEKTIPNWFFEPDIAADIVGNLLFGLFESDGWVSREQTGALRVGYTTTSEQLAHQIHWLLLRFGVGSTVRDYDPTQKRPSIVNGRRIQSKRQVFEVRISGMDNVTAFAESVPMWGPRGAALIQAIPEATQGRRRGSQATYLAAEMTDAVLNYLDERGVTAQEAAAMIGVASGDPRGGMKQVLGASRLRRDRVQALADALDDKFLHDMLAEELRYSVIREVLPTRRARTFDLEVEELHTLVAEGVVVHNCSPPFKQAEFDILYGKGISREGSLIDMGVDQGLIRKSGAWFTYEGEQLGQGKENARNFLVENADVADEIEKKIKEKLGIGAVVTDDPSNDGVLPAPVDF
The series can be described thus: Fluorescence Cell-Free Homogeneous Dose Retest to Identify Inhibitors of RecA-Intein Splicing Activity. [Related pubchem assays (depositor defined):AID2097, AID2223, AID489010, AID492950]. Type of series: functional.

The next series has as its target Cytochrome P450 2C19 (Homo sapiens, UniProt P33261). The series can be described thus: Cytochrome panel assay with activity outcomes. Panel member name: p450-cyp2c19 Compounds with AC50 equal or less than 10 uM are considered active. Format: functional. To be noted: read-out: AC50.
Series [7] addresses T4, Corticotropin-releasing factor receptor 2/Corticotropin-releasing factor-binding protein (Homo sapiens, UniProt P24387+Q13324).
T4 sequence (Q13324 whole entry): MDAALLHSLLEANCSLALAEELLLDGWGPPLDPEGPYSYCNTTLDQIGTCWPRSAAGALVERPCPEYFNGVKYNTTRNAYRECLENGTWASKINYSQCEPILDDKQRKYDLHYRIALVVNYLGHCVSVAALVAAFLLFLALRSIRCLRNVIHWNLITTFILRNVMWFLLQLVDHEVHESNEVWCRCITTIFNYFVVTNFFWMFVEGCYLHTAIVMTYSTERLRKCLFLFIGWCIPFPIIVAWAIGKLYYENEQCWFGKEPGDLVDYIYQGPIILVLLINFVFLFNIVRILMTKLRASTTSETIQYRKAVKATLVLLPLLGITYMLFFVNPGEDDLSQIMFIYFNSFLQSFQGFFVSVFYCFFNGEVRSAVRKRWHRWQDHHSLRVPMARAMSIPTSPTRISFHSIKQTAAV
T4 sequence (P24387 whole entry): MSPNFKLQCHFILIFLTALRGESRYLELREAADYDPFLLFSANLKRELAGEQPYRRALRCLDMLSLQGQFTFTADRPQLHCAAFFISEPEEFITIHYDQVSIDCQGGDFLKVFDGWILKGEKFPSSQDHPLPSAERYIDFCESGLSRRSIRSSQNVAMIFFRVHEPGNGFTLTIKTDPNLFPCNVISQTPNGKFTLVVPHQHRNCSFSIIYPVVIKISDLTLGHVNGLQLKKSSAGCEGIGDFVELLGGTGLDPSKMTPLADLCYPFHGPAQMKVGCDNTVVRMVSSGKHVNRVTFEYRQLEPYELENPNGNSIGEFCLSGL
The series can be described thus: Dose Response confirmation of uHTS hits for small molecule antagonists of the CRF-binding protein and CRF-R2 receptor complex. Format: functional. The note with it: read-out: IC50_Mean.

Series [8] addresses T4, Corticotropin-releasing factor receptor 2/Corticotropin-releasing factor-binding protein. Put plainly: activators of CRF receptor 2 with binding protein – uHTS hits, confirmation (AID 602473). Type of series: functional. To be noted: read-out: EC50_Mean.

Sequence of Cytochrome P450 2C9 (P11712 whole entry): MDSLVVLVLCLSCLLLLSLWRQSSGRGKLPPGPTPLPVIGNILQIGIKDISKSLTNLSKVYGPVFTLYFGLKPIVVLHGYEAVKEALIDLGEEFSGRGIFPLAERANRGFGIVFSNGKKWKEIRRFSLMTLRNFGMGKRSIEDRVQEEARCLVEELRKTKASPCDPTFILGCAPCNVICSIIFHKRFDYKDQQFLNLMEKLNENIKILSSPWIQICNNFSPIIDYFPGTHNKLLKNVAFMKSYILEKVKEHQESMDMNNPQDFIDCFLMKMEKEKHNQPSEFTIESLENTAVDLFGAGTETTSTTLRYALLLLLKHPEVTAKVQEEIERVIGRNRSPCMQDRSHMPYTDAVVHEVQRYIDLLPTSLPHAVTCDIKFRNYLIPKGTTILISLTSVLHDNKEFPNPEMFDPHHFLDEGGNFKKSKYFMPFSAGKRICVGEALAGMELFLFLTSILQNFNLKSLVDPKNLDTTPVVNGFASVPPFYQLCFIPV
Sequence of Cytochrome P450 2C19 (P33261 whole entry): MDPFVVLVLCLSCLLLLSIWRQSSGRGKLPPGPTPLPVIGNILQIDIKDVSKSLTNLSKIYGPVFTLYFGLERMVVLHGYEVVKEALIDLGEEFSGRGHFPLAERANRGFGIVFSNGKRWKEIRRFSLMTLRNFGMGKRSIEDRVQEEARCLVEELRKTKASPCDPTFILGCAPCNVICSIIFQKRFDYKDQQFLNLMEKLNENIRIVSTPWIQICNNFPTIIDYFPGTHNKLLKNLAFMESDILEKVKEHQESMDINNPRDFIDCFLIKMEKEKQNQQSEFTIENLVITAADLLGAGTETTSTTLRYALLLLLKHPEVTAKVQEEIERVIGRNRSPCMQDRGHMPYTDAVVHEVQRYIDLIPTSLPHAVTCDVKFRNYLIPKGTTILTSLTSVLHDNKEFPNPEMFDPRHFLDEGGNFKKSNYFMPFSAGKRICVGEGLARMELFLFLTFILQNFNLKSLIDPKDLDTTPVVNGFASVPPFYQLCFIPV
Sequence of DNA dC->dU-editing enzyme APOBEC-3G (Q9HC16 whole entry): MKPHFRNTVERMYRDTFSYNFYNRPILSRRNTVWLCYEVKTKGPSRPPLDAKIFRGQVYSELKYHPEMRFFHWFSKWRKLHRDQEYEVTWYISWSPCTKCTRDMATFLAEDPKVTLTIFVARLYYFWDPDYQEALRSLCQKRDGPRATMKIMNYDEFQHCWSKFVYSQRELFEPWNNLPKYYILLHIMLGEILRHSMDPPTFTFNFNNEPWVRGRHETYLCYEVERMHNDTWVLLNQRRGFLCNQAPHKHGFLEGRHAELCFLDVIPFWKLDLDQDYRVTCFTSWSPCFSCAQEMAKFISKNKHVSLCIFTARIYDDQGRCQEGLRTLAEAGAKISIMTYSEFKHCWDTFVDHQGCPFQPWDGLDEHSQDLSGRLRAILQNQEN
Sequence of Cytochrome P450 2D6 (P10635 whole entry): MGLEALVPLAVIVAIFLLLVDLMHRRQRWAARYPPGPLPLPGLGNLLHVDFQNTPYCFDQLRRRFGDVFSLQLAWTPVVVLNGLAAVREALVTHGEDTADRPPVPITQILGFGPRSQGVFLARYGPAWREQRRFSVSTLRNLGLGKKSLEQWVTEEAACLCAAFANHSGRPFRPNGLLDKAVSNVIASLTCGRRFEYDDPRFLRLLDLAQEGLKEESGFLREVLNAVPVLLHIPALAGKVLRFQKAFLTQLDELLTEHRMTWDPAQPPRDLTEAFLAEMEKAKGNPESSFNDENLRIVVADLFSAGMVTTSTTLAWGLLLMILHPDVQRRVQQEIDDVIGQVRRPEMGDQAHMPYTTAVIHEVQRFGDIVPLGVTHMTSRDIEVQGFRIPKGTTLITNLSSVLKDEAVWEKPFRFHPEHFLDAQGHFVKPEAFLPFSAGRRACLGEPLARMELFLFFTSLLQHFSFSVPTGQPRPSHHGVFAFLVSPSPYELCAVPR
Sequence of Cytochrome P450 3A4 (P08684 whole entry): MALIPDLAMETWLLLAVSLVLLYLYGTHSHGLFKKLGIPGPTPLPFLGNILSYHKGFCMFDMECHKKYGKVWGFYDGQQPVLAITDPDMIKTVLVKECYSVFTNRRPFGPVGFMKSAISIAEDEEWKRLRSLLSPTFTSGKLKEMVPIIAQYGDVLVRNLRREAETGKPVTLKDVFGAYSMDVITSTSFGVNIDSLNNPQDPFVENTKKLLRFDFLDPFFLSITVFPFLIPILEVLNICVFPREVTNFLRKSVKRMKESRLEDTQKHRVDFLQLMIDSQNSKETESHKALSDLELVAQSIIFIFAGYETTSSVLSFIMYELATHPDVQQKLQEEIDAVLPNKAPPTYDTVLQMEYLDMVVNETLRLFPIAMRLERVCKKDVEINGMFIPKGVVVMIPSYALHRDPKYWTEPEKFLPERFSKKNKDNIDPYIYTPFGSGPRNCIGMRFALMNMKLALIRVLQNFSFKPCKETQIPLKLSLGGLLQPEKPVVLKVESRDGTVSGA
Sequence of Glucose-6-phosphate 1-dehydrogenase (P11413 whole entry): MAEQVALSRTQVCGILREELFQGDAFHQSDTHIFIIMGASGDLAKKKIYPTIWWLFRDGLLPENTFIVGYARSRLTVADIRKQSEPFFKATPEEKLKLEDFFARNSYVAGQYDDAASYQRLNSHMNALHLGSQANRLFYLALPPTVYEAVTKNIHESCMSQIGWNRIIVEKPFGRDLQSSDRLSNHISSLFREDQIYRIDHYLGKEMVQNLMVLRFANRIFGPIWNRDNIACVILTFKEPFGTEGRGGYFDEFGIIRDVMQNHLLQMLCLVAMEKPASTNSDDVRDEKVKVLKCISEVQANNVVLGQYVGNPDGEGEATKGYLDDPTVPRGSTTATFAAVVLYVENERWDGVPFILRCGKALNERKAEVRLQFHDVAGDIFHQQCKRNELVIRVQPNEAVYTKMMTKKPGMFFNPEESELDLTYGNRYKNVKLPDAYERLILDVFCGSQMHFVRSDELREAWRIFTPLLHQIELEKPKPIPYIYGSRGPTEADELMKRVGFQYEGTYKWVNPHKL

With `OCC1(CCCc2ccccc2)CCN(Cc2cc(F)ccc2F)CC1`, the EC50 in [1] is 4.22 µM (active).

Turning to `Cc1ccc(-c2nc3ccccc3s2)cc1NC(=S)NC(=O)c1cccc2ccccc12`, the EC50 in series [2] was 14.1 µM (active); in series [3], 12.1 µM (active). The AC50 in the series on Escherichia coli was 36.4 µM (active).

On to `C[C@H](Br)C(=O)c1ccc2cc(Br)c3ccccc3c2c1`, for which the AC50 result at Cytochrome P450 2C9 is listed as “inconclusive”.

In the case of `O=C(CCCSc1ccc(Cl)cc1)Nc1cc(S(=O)(=O)N2CCOCC2)ccc1O`, in [4], the IC50 is 33.2 µM (active).

As for `O=C(c1cccnc1)C1CCCN(Cc2nc(Cc3ccccc3)no2)C1` (configuration not stated), the AC50 with Escherichia coli is 42 µM (active).

For the molecule `CCNc1ccccc1CP(=O)(c1ccccc1)c1ccccc1O` (configuration not stated), in [5], the IC50 was 42.6 µM (inactive). In series [6], the AC50 was 10.4 µM (active). At Protein RecA, the EC50 was 1.25 µM (active).

For `COc1ccc(NC(=O)C(=O)NNC(=O)c2cccs2)c(OC)c1`, the values for the AC50 on Cytochrome P450 2C19, at Cytochrome P450 3A4 and on Cytochrome P450 2C9 were 39.8 µM (inconclusive), 17.8 µM (inconclusive) and “inconclusive”, respectively. In [7], the IC50 is > 47.1 µM (inactive). Also, in series [8], the EC50 was > 53 µM (inactive).

Turning to `COc1ccc2[nH]c(NCc3ccccc3)nc2c1`, the EC50 in series [1] was 1.68 µM (active).

In the case of `CNc1nc(-c2cccnc2)nc2ccccc12`, the figures for the AC50 at Cytochrome P450 2C19, at Cytochrome P450 2C9 and at Cytochrome P450 2D6 were 39.8 µM (inconclusive), “inconclusive” and 39.8 µM (inconclusive), respectively.

For `CC(NC(=O)CSc1nc2sc3c(c2c(=O)n1-c1ccccc1)CCCC3)c1ccccc1` (configuration not stated), the AC50 in the series on Escherichia coli was 107 µM (active).

`COc1ccc(NC(=O)CCSc2cc(C)c3ccccc3n2)cc1`: the values for the AC50 result on Cytochrome P450 2C9 and on Cytochrome P450 2D6 were “inconclusive” and 31.6 µM (inconclusive), respectively.

In the case of `Oc1nc(N2CCCCC2)nc2c1CCCC2`, in the series on Escherichia coli, the concentration at half-maximal activity (AC50) was 24.9 µM (active).

Consider `CCCCn1c(NCCO)nc2ccccc21`, for which the EC50 in [1] is 1.68 µM (active).

Take `O=C(Nc1ccc(Cl)c(C(F)(F)F)c1)NC1CC2CCCC(C1)N2C1CC1` (configuration not stated): in the series on Escherichia coli, the AC50 was 25.7 µM (active).

Take `CN(C)/C=N/c1ncc(C(=O)c2ccc3ccccc3c2)s1`: the concentration at half-maximal activity (AC50) entry on Cytochrome P450 2C9 is reported as “inconclusive”.

`Sc1nc2ccccc2n1Cc1ccccc1`: in series [4], the IC50 was 37.2 µM (active).
